Experimental data taken from US11891640B1, “Crop protection in algae by exogenous terpene expression” (priority 2021, dated 2024).

System: Brachionus plicatilis (rotifers)
Assay: Cultivation assay of N. oceanica in the presence of rotifers (culture stability against predation)
Assay type: in vivo
Settings: rotifer concentrations between 10-50/mL
Description: FIGS. 3A-3B show culture stability in the presence of predation by rotifers. Provided are graphs showing (A) a culture including wild type Nannochloropsis oceanica (N. oceanica) exposed to increasing Brachionus plicatilis (rotifers) concentrations and (B) a transformed culture including N. oceanica strain 24N having a […]-322581 (Hypoxylon sp. CI-4A, sesquiterpene synthase) gene. Cultivation assays of N. oceanica in the presence of rotifers, which are common algae grazers and culture-crash inducing agents, indicate up to 50% increased survival of the sesquiterpene producing cultures over controls, indicating potential for algae crop-protection applications. Additional details follow. FIGS. 3A-3B show culture stability against predation.

**Q.** How did the predation resistance turn out when `C=C(C)[C@@H]1CC=C2CCC[C@@H](C)[C@]2(C)C1` [aristolochene] was run?
**A.** significantly increased predation resistance
